Structures are written as SMILES. Counter-ions that a name gives are not always drawn.

Assay [1] has as its target T1, recombinant human Lp-PLA2 (Homo sapiens, UniProt Q13093).
T1 sequence (Q13093 22-441): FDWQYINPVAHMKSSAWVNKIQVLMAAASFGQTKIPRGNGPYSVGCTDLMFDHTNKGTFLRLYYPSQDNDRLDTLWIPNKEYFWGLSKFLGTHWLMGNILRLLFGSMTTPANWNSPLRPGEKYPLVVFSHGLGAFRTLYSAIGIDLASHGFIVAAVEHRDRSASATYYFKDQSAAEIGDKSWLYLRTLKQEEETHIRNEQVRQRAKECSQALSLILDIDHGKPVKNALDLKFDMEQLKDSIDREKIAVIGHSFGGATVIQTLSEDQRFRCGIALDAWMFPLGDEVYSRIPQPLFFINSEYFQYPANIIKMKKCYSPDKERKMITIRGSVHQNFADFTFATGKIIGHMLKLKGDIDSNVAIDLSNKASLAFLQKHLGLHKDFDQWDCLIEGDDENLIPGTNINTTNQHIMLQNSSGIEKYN
The experiment in a line: Recombinant human Lp-PLA2 assay (rhLp-PLA2, PED6 assay). The assay is classed as biochemical. Particulars: recombinant human Lp-PLA2, PED6 substrate; upper limit for pIC50 in this assay is 9.3. An excerpt:
(1) Recombinant Human Lp-PLA2 Assay (rhLp-PLA2) (Also Referred to as “PED6” Assay)
N-((6-(2,4-dinitrophenyl)amino)-hexanoyl)-2-(4,4-difluoro-5,7-dimethyl-4-bora-3a,4a-diaza-s-indacene-3-pentanoyl)-1-hexadecanoyl-sn-glycero-3-phosphoethanolamine, triethylammonium salt (PED6) is a commercially available fluorescently-labeled phospholipid, which is commercially available from Invitrogene and Molecular Probes. There is a quenching […] and a Bodipy fluorescein (FL) group in the sn2 position. Upon cleavage with Lp-PLA2, the Bodipy FL group is liberated and then may result in an increase in fluorescence. Inhibitors of Lp-PLA2 therefore prevent this cleavage and no fluorescent increase is observed.
The PED6 assay was run as an unquenched 10 μL assay. The source plate containing the compounds to be tested was prepared by making 1:3 (by volume) serial dilution of the compounds within DMSO on 384-well microplate. Then, 0.01 μL of the compounds on compound source plate were transferred into 384 well Greiner 784076 (black) plates using ECHO liquid dispenser. 5 µL of recombinant human Lp-PLA2 enzyme (4 nM (or 110 pM) rhLp-PLA2 in assay buffer of 50 mM HEPES, pH 7.4, 150 mM NaCl, 1 mM CHAPS) was added to each well of the plate. Plates were centrifuged for 10 sec at 500 rpm. After 30 minutes preincubation, 5 µL of substrate (4 μM (or 5 μM) PED6 [from 5 mM DMSO stock] in assay buffer of 50 mM HEPES, pH 7.4, 150 mM NaCl, 1 mM CHAPS) was added to 384 well Greiner 784076 (black) plates. Plates were centrifuged for 10 sec at 500 rpm. The plate was covered to protect it from light and incubated for 20 min at room temperature. The plates were read for fluorescence intensity at ex: 480/em: 540 using ViewLux microplate imager for Envision spectrofluroimeters pIC50 data, curve and QC analysis was conducted by using XL fit module in Excel.
The compounds described below were tested generally according to the PED6 assay described above.

In another assay the target is T2, Lp-PLA2 in human plasma (Homo sapiens, UniProt Q13093).
T2 construct: This assay may detect the activity of Lp-PLA2 in human plasma; from tissue; host or cells: pooled human plasma
T2 sequence (Q13093 22-441): T1 sequence (Q13093 22-441)
The experiment in a line: Lp-PLA2 human plasma assay (Thio-PAF assay). Particulars: pooled human plasma, 2-thio-PAF substrate; read-out: pIC50 in the thio-PAF assay (converted). The assay is classed as biochemical. The source says: (3) Lipoprotein-Associated Phospholipase A2 (Lp-PLA2) Human Plasma Assay (Also Referred to as “Thio-PAF Assay”)
The human plasma assay utilizes a thioester analog of PAF (phosphatidylcholine), where hydrolysis yields to the formation of a phospholipid containing a free thiol group. The amount of thiol is quantitated continuously by reacting with CPM (7-diethylamino-3-(4′-maleimidylphenyl)-4-methylcoumarin), a maleimide which increases in fluoresence after Michael addition of thiols. This assay may detect the activity of Lp-PLA2 in human plasma, as determined by specific inhibition by Lp-PLA2 inhibitors.
The thio-PAF assay was run as a quenched 15 μL assay. Compounds source plate was prepared by making 1:3 (by volume) serial dilution of the compounds into pure DMSO on 384-well microplate. 0.01 μL of compounds on compound source plate were transferred to 384 well Greiner 784076 (black) low-volume plates by ECHO liquid dispenser. 8 μL pooled human plasma, which was previously aliquoted and frozen, was added. Plates were centrifuged for 10 sec at 500 rpm. After 30 minutes preincubation, 2 μL of substrate solution comprising 2.5 mM 2-thio-PAF [from ethanol stock], 32 μM CPM [from a DMSO stock] and 3.2 mM NEM (N-ethylmaleimide) [made fresh daily in DMSO] in assay buffer of 50 mM HEPES, pH 7.4, 150 mM NaCl, 1 mM CHAPS was added to 384 well Greiner 784076 (black) low-volume plates by BRAVO liquid handling station. After 2 mins, reaction was quenched with 5 μL of 5% aqueous trifluoroacetic acid (TFA). Plates were covered to protect from light and incubated for 40 min at room temperature. Plates were read at ex: 380/em: 485 using-Envision microplate reader. pIC50 data, curve and QC analysis was conducted by using XLFit module in Excel.

In the case of `CN1CCn2c1cc(OCc1ccc(Oc3ccc(F)c(C(F)(F)F)c3)c(F)c1)nc2=O` [Example E45, 7-((3-fluoro-4-(4-fluoro-3-(trifluoromethyl)phenoxy)benzyl)oxy)-1-methyl-2,3-dihydroimidazo[1,2-c]pyrimidin-5(1H)-one, trifluoroacetic acid salt], the IC50 in assay [1] was at most 1 nM; on Lp-PLA2 in human plasma, at most 100 nM.

In the case of `N#Cc1cc(COc2cc3n(c(=O)n2)CCN3)ccc1Oc1cncc(C(F)(F)F)c1` [Example 124, 5-(((5-oxo-1,2,3,5-tetrahydroimidazo[1,2-c]pyrimidin-7-yl)oxy)methyl)-2-((5-(trifluoromethyl)pyridin-3-yl)oxy)benzonitrile, trifluoroacetic acid salt], the IC50 in assay [1] was at most 10 nM; at Lp-PLA2 in human plasma, at most 100 nM.

As for `CN1CCn2c1cc(OCc1cc(F)c(Oc3cncc(C(F)(F)F)c3)c(F)c1)nc2=O` [Example 147, 7-((3,5-difluoro-4-((5-(trifluoromethyl)pyridin-3-yl)oxy)benzyl)oxy)-1-methyl-2,3-dihydroimidazo[1,2-c]pyrimidin-5(1H)-one], the values for the IC50 (in assay [1]; on Lp-PLA2 in human plasma) were 1 nM and at most 100 nM, respectively.

In the case of `O=c1nc(OCc2ccc(Oc3ccnc(C(F)(F)F)c3)c(F)c2)cc2n1CCN2` [Example 119, 7-((3-fluoro-4-((2-(trifluoromethyl)pyridin-4-yl)oxy)benzyl)oxy)-2,3-dihydroimidazo[1,2-c]pyrimidin-5(1H)-one], the IC50 was 2.51 nM in assay [1] and at most 100 nM at Lp-PLA2 in human plasma.

For the compound `N#Cc1cc(COc2cc3n(c(=O)n2)CCN3)ccc1Oc1ccc(F)c(Cl)c1` [Example E76, 2-(3-chloro-4-fluorophenoxy)-5-(((5-oxo-1,2,3,5-tetrahydroimidazo[1,2-c]pyrimidin-7-yl)oxy)methyl)benzonitrile, trifluoroacetic acid salt], the IC50 in assay [1] is at most 1 nM; on Lp-PLA2 in human plasma it was at most 1000 nM.

For the compound `CN1CCn2c1cc(OCc1ccc(Oc3cc(F)c(F)c(F)c3)c(F)c1)nc2=O` [Example E42, 7-((3-fluoro-4-(3,4,5-trifluorophenoxy)benzyl)oxy)-1-methyl-2,3-dihydroimi-dazo[1,2-c]pyrimidin-5(1H)-one], the IC50 in assay [1] is at most 10 nM; on Lp-PLA2 in human plasma it was at most 1000 nM.

`CN1CCn2c1cc(OCc1ccc(Oc3ccc(Cl)c(C(F)(F)F)c3)c(F)c1)nc2=O` [Example E85, 7-((4-(4-chloro-3-(trifluoromethyl)phenoxy)-3-fluorobenzyl)oxy)-1-methyl-2,3-dihydroimidazo[1,2-c]pyrimidin-5(1H)-one]: the IC50 in assay [1] was at most 1 nM; at Lp-PLA2 in human plasma, at most 100 nM.

In the case of `CN1CCn2c1cc(OCc1ccc(Oc3ccc(C#N)c(Cl)c3)c(C#N)c1)nc2=O` [Example 122, 2-chloro-4-(2-cyano-4-(((1-methyl-5-oxo-1,2,3,5-tetrahydroimidazo[1,2-c]pyrimidin-7-yl)oxy)methyl)phenoxy)benzonitrile], the IC50 is at most 10 nM in assay [1] and at most 100 nM on Lp-PLA2 in human plasma.

As to `CN1CCn2c1cc(OCc1cc(F)c(Oc3ccc(Cl)c(F)c3)c(F)c1)nc2=O` [Example E86, 7-((4-(4-chloro-3-fluorophenoxy)-3,5-difluorobenzyl)oxy)-1-methyl-2,3-dihydroimi-dazo[1,2-c]pyrimidin-5(1H)-one], the IC50 in assay [1] is at most 1 nM; at Lp-PLA2 in human plasma it was at most 100 nM.

For the compound `CN1CCn2c1cc(OCc1cc(F)c(Oc3ccc(F)c(Cl)c3)c(F)c1)nc2=O` [Example E87, 7-((4-(3-chloro-4-fluorophenoxy)-3,5-difluorobenzyl)oxy)-1-methyl-2,3-dihydroimidazo[1,2-c]pyrimidin-5(1H)-one], the IC50 was at most 1 nM in assay [1] and at most 100 nM on Lp-PLA2 in human plasma.

With `CN1CCn2c1cc(OCc1cc(F)c(Oc3ccc(F)c(F)c3)c(F)c1)nc2=O` [Example E75, 7-((4-(3,4-difluorophenoxy)-3,5-difluorobenzyl)oxy)-1-methyl-2,3-dihydroimida-zo[1,2-c]pyrimidin-5(1H)-one], the IC50 in assay [1] is at most 10 nM; on Lp-PLA2 in human plasma, at most 1000 nM.

In the case of `CN1CCn2c1cc(OCCc1ccc(Oc3ccc(Cl)c(C(F)(F)F)c3)cc1)nc2=O` [Example E13, 7-(4-(4-chloro-3-(trifluoromethyl)phenoxy)phenethoxy)-1-methyl-2,3-dihydroimi-dazo[1,2-c]pyrimidin-5(1H)-one], the IC50 is at most 10 nM in assay [1] and at most 1000 nM on Lp-PLA2 in human plasma.

Turning to `CN1CCn2c1cc(OCc1ccc(Oc3ccc(C(F)(F)F)nc3)c(F)c1)nc2=O` [Example E3, 7-((3-fluoro-4-((6-(trifluoromethyl)pyridin-3-yl)oxy)benzyl)oxy)-1-methyl-2,3-dihydroimidazo[1,2-c]pyrimidin-5(1H)-one], the IC50 in assay [1] is at most 10 nM; at Lp-PLA2 in human plasma it was at most 1000 nM.

For the compound `CN1CCn2c1cc(OCc1ccc(Oc3cccc(C(F)(F)F)c3)c(F)c1)nc2=O` [Example E20, 7-((3-fluoro-4-(3-(trifluoromethyl)phenoxy)benzyl)oxy)-1-methy-2,3-dihydroimid-azo[1,2-c]pyrimidin-5(1H)-one], the IC50 in assay [1] was at most 10 nM; at Lp-PLA2 in human plasma, at most 1000 nM.

Turning to `CN1CCn2c1cc(OCc1ccc(Oc3ccnc(Cl)c3)c(C#N)c1)nc2=O` [Example 107, 2-((2-chloropyridin-4-yl)oxy)-5-(((1-methyl-5-oxo-1,2,3,5-tetrahydroimidazo[1,2-c]pyrimidin-7-yl)oxy)methyl)benzonitrile], the IC50 is at most 10 nM in assay [1] and at most 1000 nM at Lp-PLA2 in human plasma.

Consider `CN1CCn2c1cc(OCc1ccc(Oc3ccc(Cl)c(C(F)(F)F)c3)cc1)nc2=O` [Example E5, 7-((4-(4-chloro-3-(trifluoromethyl)phenoxy)benzyl)oxy)-1-methyl-2,3-dihydroimidazo[1,2-c]pyrimidin-5(1H)-one], for which the results for the IC50 (in assay [1]; on Lp-PLA2 in human plasma) were at most 10 nM and at most 100 nM, respectively.

As to `CN1CCn2c1cc(OCc1ccc(Oc3cccc(C(F)(F)F)c3)c(C#N)c1)nc2=O` [Example E1, 5-(((1-methyl-5-oxo-1,2,3,5-tetrahydroimidazo[1,2-c]pyrimidin-7-yl)oxy)methyl)-2-(3-(trifluoromethyl)phenoxy)benzonitrile], the IC50 in assay [1] was at most 10 nM; at Lp-PLA2 in human plasma, at most 100 nM.

As to `N#Cc1cc(COc2cc3n(c(=O)n2)CCN3)ccc1Oc1cnc(F)c(F)c1` [Example 117, 2-((5,6-difluoropyridin-3-yl)oxy)-5-(((5-oxo-1,2,3,5-tetrahydroimidazo[1,2-c]pyrimidin-7-yl)oxy)methyl)benzonitrile], the IC50 in assay [1] was at most 10 nM.

On to `CN1CCn2c1cc(OCc1ccc(F)c(Oc3cccc(Cl)c3)c1)nc2=O` [Example E16, 7-((3-(3-chlorophenoxy)-4-fluorobenzyl)oxy)-1-methyl-2,3-dihydroimidazo[1,2-c]pyrimidin-5(1H)-one], for which, in assay [1], the IC50 is at most 10 nM.

Values taken from patent US8975400B2, “2,3-dihydroimidazo[1, 2-c] pyrimidin-5(1 H)-one compounds use as LP-PLA2 inhibitors” (Glaxo Group Limited, priority 2011, dated 2015).
